In US12582648B2 (BIOPROJET Pharma, priority 2020, dated 2026):

Columns and labels:
[1] = test system: monosynaptic spinal cord reflex; experiment: Monosynaptic response in the isolated spinal cord of rat pups (rat model of RLS); details: for inhibition of the monosynaptic reflex: reference agonists applied to isolated rat spinal cord
Description: RLS is believed to reflect an abnormal sensitivity of spinal stretch reflexes. These reflexes are modulated in an inhibitory fashion by dopamine released in the dorsal horn from a descending dopaminergic projection arising from A11 dopamine cells in the hypothalamus.
Electrophysiological responses i.e. motor action potentials recorded on the ventral root of isolated spinal cord from rat pups following stimulation of the dorsal root were analyzed.

[2] = target: human dopamine D3 receptor (Homo sapiens, UniProt P35462); experiment: Mitogenesis assay of D3-receptor activation ([3H]-thymidine incorporation, CHO cells); assay type: cell-based; details: for agonist behaviour (partial / full): human D3 receptor
Description: Mitogenesis Assay of D3-Receptor Activation
Chinese hamster ovary (CHO) cells stably expressing the human dopamine D3 receptor were plated overnight in 96-well plates. Cells were then washed with serum-free medium, and incubated 20 h with various concentrations of ligands. Tritiated thymidine was added for a 4 hour-pulse. Then, the cells were detached with trypsin/EDTA, transferred in GF/C multiscreen microplates, rinsed with ice-cold PBS and ethanol and dried. [^3H]-Thymidine incorporation was measured by liquid scintillation in a MicroBeta counter.
Results are expressed as percentage of the maximal [^3H]-thymidine incorporation yielded with the full agonist quinelorane.

human D2 receptor = human D2 receptor (Homo sapiens, UniProt P14416); experiment: Affinity at the human D2 receptor; assay type: binding
RLS patients = experiment: Double-blind placebo-controlled clinical trial in restless legs syndrome; assay type: in vivo, human; details: 15 mg twice a day for two weeks
Description: Clinical Studies: Efficacy of BP1.4979 in Restless Legs Syndrome (Randomized, Double Blind Parallel Groups Sequential, Placebo Controlled, Clinical Trial)
The double-blind trial was conducted on 29 patients.

[3] = test system: 160 other receptors, channels or enzymes; experiment: Activity at 160 other receptors, channels or enzymes
healthy smokers = experiment: Weight gain during smoking cessation, double blind clinical trial; assay type: in vivo, human; details: for weight increase: after twelve weeks; for weight increase compared to the weight before treatment: twelve further weeks after the end of treatment
human D3 receptor = target: T1, human D3 receptor (Homo sapiens, UniProt P35462); experiment: GTPγ35S binding assay at D3 dopamine receptor (CHO cell membranes); assay type: biochemical; details: GTPγ[35S] assay, dopamine as full agonist reference
T1 construct: expressed in transfected cells
Description: Thawed membranes from CHO cells stably expressing human D3 receptor were diluted at a final concentration of 5 μg/180 μL/well in a binding buffer containing HEPES 50 mM, MgCl2 3 mM, NaCl 140 mM, GDP 4 μM, pH=7.4 and distributed in 96 well polystyrene microplate. […] After transfer in a Millipore GF/C HTS® microplate, the filtration of the reactional mix followed by a three time 250 μl wash put an end to the reaction. The filter-bound radioactivity was measured in a liquid scintillation counter Microbeta with 70 μl of scintillation fluid.

[4] = target: T2, human dopamine D2 short isoform (Homo sapiens, UniProt P14416); experiment: Calcium fluxes assay of D2-receptor activation/inhibition (HEK293 cells); assay type: cell-based; details: calcium flux; for agonist behaviour at D2 receptor: BP1.4979 at concentrations up to 1,000 nM; for EC50: HEK293 cells, human D2 short isoform
T2 construct: expressed in transfected cells; host or cells: HEK293 cells
Description: Calcium Fluxes Assay of D2-Receptor Activation/Inhibition
HEK293 cells expressing the human dopamine D2 short isoform were used to evaluate the potential agonist property of test compounds. Cells were loaded with Fluo-4-AM solution supplemented with sulfinpyrazone then plated in a 96-well plate and introduced in a FLEX station for fluorescence measurement following calcium transients.
Responses were calculated as the maximum minus the minimum fluorescence counts (Fmax−Fmin).

T2 sequence (P14416 1-414 isoform P14416-2): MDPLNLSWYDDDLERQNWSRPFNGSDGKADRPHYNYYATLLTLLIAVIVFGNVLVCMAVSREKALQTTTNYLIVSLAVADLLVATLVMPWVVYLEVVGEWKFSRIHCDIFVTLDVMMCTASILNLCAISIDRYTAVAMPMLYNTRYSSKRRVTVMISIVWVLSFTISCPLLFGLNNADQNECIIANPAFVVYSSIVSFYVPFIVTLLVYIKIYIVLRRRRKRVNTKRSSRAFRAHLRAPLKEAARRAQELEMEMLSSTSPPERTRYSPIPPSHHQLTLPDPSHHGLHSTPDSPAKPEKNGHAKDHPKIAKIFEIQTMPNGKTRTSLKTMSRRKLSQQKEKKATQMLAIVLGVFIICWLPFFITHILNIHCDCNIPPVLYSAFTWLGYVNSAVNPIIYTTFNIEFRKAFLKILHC
Chain of human dopamine D3 receptor (P35462 whole entry): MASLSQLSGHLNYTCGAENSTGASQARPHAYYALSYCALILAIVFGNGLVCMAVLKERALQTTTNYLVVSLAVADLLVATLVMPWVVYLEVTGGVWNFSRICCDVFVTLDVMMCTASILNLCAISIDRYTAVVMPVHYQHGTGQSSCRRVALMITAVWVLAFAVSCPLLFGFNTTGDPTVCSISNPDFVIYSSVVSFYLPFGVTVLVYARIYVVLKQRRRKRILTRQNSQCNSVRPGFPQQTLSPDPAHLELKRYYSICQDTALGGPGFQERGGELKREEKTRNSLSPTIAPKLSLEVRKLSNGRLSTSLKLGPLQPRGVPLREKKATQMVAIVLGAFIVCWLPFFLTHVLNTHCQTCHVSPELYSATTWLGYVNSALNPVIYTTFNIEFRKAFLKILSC
Chain of human D2 receptor (P14416 whole entry): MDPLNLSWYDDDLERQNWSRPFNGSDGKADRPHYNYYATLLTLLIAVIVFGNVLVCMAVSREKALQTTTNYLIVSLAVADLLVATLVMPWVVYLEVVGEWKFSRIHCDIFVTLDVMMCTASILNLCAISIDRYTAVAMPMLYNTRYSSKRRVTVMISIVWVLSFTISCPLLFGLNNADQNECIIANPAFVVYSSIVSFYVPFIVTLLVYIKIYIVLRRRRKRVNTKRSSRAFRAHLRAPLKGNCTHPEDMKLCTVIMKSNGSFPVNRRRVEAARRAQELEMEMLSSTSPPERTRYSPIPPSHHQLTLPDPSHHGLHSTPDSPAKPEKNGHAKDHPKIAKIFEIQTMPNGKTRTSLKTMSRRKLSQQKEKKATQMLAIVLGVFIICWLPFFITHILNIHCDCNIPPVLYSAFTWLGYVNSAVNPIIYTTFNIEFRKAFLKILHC
T1 sequence (P35462 whole entry): as the sequence (P35462 whole entry) above

CCCN(CCC)C1CCc2ccc(O)cc2C1 (stereo not shown) [7-OHDPAT, reference compound]
inhibition of the monosynaptic reflex [1]: total or nearly total inhibition

COCCC(=O)N[C@H]1CC[C@H](CCN2CCN(c3cccc(C#N)c3)CC2)CC1 [BP1.4979, N-(4-{2-[4-(3-Cyanophenyl)piperazin-1-yl]ethyl}cyclohexyl)-3-methoxypropanamide]
Emax ([2]; CHO, read-out: intrinsic activity): 30% | EC50 ([2]; mitogenesis, CHO cells expressing human D3 receptor): 0.7 nM | agonist behaviour (partial / full) ([2]; mitogenesis): partial agonist | behaviour at the human D2 receptor (human D2 receptor): pure antagonist | nausea and vomiting side-effects (RLS patients): no patient reported any symptom related to nausea nor did had vomiting episodes | activity at 160 other receptors, channels or enzymes [3]: inactive | weight increase (healthy smokers; 3 mg once a day): 0.9 kg | weight increase compared to the weight before treatment (healthy smokers; 3 mg once a day): 2.0 kg | weight increase (healthy smokers; 10 mg once a day): 0.5 kg | weight increase compared to the weight before treatment (healthy smokers; 10 mg once a day): 1.4 kg | weight increase (healthy smokers; 15 mg once a day): 0.0 kg | weight increase compared to the weight before treatment (healthy smokers; 15 mg once a day): 0.2 kg | inhibition of the synaptic transmission ([1]; 30 nM, stimulation 40 V, 50 μs of the dorsal root): inhibited fully | amplitude of the post-synaptic response on the ventral root ([1]; another series of experiments, supraliminar stimulation of the dorsal root): dose dependently inhibited | effect on post-synaptic response in the presence of the dopamine D3 antagonist BP1.4096 ([1]; in the presence of BP1.4096): prevented | partial activity (human D3 receptor): < 5% | blockade of the effect of dopamine or agonists ([4]; antagonist mode): block completely | agonist behaviour at D2 receptor [4]: failed to activate the receptor

NCCc1ccc(O)c(O)c1 [Dopamine, dopamine, reference compound]
inhibition of the monosynaptic reflex [1]: total or nearly total inhibition

CCCN(CCC)CCc1cccc2c1CC(=O)N2 [Ropinirole]
agonist behaviour (partial / full) ([2]; mitogenesis): full agonists | EC50 [4]: 20 nM | agonist behaviour at D2 receptor [4]: full agonists

CCCN(CCc1cccs1)[C@H]1CCc2c(O)cccc2C1 [Rotigotine]
EC50 [4]: 0.3 nM | agonist behaviour at D2 receptor [4]: full agonists
